# Source: ChEMBL document CHEMBL1139858, “Design, synthesis, and X-ray structure of potent memapsin 2 (beta-secretase) inhibitors with isophthalamide derivatives as the P2-P3-ligands” (J Med Chem, 2007)
# Tests used:
# Beta-secretase 1 [1] = biological target: T1, Beta-secretase 1 (Homo sapiens, UniProt P56817)
# Description: Inhibition of recombinant memapsin 2
# Cathepsin D = Cathepsin D (Homo sapiens, UniProt P07339)
# Description: Inhibition of human cathepsin D
# Beta-secretase 1 [2] = biological target: T1, Beta-secretase 1; remark: listed apart in the source
# Description: Inhibition of memapsin 2 expressed in CHO cells
# Chain of Cathepsin D (P07339 65-162 limits assumed): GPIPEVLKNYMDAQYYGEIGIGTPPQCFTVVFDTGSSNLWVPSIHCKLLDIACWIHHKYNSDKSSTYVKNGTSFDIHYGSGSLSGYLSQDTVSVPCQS
# Chain of Cathepsin D (P07339 169-412 limits assumed): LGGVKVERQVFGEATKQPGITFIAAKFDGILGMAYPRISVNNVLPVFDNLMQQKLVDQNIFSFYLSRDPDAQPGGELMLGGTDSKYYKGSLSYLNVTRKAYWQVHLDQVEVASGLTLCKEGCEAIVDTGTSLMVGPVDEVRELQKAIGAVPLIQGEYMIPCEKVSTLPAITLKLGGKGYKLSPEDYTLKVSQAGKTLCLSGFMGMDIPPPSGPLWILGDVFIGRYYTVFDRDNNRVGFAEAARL
# T1 sequence (P56817 whole entry): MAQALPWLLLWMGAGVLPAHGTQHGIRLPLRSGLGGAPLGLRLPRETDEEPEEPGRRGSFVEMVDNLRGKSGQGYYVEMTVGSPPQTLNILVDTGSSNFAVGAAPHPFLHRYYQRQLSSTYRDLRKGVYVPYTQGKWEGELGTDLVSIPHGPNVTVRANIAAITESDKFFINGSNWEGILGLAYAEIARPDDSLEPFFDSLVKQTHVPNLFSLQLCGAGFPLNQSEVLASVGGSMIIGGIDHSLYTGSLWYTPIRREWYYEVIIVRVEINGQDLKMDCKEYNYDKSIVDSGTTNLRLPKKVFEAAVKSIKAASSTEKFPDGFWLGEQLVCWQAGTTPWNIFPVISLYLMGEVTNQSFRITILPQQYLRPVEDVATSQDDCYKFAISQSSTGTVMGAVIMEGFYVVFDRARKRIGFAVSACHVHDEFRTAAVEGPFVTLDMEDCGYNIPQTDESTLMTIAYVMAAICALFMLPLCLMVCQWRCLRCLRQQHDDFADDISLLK
structure (smiles),measurement,setting,value
Cc1nc(CNC(=O)c2cc(C(=O)N[C@@H](CC(C)C)[C@@H](O)C[C@@H](C)C(=O)N[C@H](C(=O)NC(C)C)C(C)C)cc(N(C)S(C)(=O)=O)c2)c(C)o1,Ki,Beta-secretase 1 [1],1.8 nM
same,Ki,Cathepsin D,245 nM
same,IC50,Beta-secretase 1 [2],1800 nM
Cc1nc(C(C)NC(=O)c2cc(C(=O)N[C@@H](CC(C)C)[C@@H](O)C[C@@H](C)C(=O)N[C@H](C(=O)NC(C)C)C(C)C)cc(N(C)S(C)(=O)=O)c2)c(C)o1 (some centres not stated),Ki,Beta-secretase 1 [1],27 nM
same,Ki,Cathepsin D,490 nM
same,IC50,Beta-secretase 1 [2],10300 nM
CCCNC(=O)c1cc(C(=O)N[C@@H](CC(C)C)[C@@H](O)C[C@@H](C)C(=O)N[C@H](C(=O)NC(C)C)C(C)C)cc(N(C)S(C)(=O)=O)c1,Ki,Beta-secretase 1 [1],52.5 nM
same,Ki,Cathepsin D,483 nM
same,IC50,Beta-secretase 1 [2],3600 nM
CC(C)C[C@H](NC(=O)c1cc(C(=O)N[C@H](CO)c2ccccc2)cc(N(C)S(C)(=O)=O)c1)[C@@H](O)C[C@@H](C)C(=O)N[C@H](C(=O)NC(C)C)C(C)C,Ki,Beta-secretase 1 [1],438 nM
same,IC50,Beta-secretase 1 [2],190000 nM
CCCNC(=O)c1cccc(C(=O)N[C@@H](CC(C)C)[C@@H](O)C[C@@H](C)C(=O)N[C@H](C(=O)NC(C)C)C(C)C)c1,Ki,Beta-secretase 1 [1],788 nM
